According to patent publication US9867811B2, “Method of treating atherosclerosis in high triglyceride subjects” (NOVARTIS AG, priority 2011, dated 2018):
Read-outs that look alike come from different tables or passages of the source.

Experiments:
CETP = biological target: T1, CETP (Homo sapiens, UniProt P11597); assay: In vitro CETP activity assay in human plasma (serum pools of differing triglyceride level); assay type: biochemical; details: for IC50: human serum pool
T1 construct: Human serum samples were obtained from the Novartis Institutes for BioMedical Research donor program; tissue Novartis donor program; Bioreclamation (Westbury, N.Y.); Uniglobe (Reseda, Calif.); host or cells: pooled human donor serum
T1 sequence (P11597 18-493): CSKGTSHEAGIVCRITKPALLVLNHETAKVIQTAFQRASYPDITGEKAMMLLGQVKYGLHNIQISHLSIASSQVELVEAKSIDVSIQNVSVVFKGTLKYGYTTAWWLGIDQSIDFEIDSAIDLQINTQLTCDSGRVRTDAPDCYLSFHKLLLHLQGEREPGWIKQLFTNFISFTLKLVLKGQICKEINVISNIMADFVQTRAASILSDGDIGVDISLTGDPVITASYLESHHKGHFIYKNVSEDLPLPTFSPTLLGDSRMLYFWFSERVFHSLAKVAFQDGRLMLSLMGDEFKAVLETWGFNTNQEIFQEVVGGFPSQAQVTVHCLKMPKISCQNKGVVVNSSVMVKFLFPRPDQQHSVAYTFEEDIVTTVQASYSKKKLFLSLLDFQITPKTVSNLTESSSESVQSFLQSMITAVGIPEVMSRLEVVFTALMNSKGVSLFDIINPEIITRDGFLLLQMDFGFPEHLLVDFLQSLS
Protocol: Pro-apoA-1 containing microemulsion as a donor particle was prepared following previous report (J. Biol. Chem., 280:14918-22). Glyceryl trioleate (500 ug, Sigma-Aldrich, Cat. No. T7140), 3-sn-phosphatidylcholine (4680 ug, Sigma, Cat. No. P2772), and cholesteryl BODIPY FL 012 (2 mg, Invitrogen, CA, Cat. No. C-3927MP) were dissolved in 1.5 mL of chloroform. The solution was evaporated, and residual solvent was removed under vacuum for more than 1 hr at room temperature. The dried lipid mixture was dissolved in 7 ml of the assay buffer (50 mM Tris-HCl (pH 7.4) containing 150 mM NaCl and 2 mM EDTA) and sonicated in water bath for 1 hr. The solution was split into two tubes of 3.5 ml each. Each tube was sonicated at 50° C. with a microtip (MICROSON™ ULTRASONIC CELL DISRUPTOR, Misonix, Farmingdale, N.Y.) at output power 006 for 10 min (every other 25 seconds). The solution was cooled to 40° C. and 400 ug of pro-apoA-1 was added to each tube (total volume of 4 mL). Then, the solution was sonicated at output power 004 for 20 min (every other 30 seconds). Final Concentration: Glyceryl Tiroleate: 62.5 ug/ml, PC: 585 ug/ml, Bodipy CE: 250 ug/ml, Pro-apoA-1: 100 ug/ml. Centrifuge solution at 5200×g for 5 minutes and store the supernatant at 4′C.
Human serum samples were obtained from the Novartis Institutes for BioMedical Research donor program (normal triglyceride samples) or purchased from Bioreclamation (Westbury, N.Y.) or Uniglobe (Reseda, Calif.). General requirements for human serum donors included: male gender, 20-55 years of age, not currently on a lipid altering medication, non-fasting at time of blood collection, and a total cholesterol level between 200-300 mg/dL. Donor samples were selected primarily on the basis of serum triglyceride level, using the following classifications: normal triglycerides (<150 mg/dL); high triglycerides (300-500 mg/dL); and very high triglycerides (750-1200 mg/dL). A total of 4 individual serum samples from each classification were used in these experiments. For each of the 3 triglyceride classifications, two serum sample pools were prepared. The mean plasma triglyceride concentrations (mg/dL) for the pools were: Normal: 101.35; High: 347.5; Very high 1, 868.45; Very high 2, 1269.35.
Donor solution is prepared by a dilution of donor microemulsion with assay buffer (1.7 ul donor+8.3 ul Buffer). Human serum (25 μL), assay buffer (14 μL) and 50× test compound dissolved in 100% dimethylsulfoxide (1 μL) are added to each well of 384 well black, clear-bottom plate (NUNC. Thermo Fisher #242764). The reaction is started by the addition of donor solution (10 μL) into each well. Fluorescence intensities are measured every 10 min at 37° C. with excitation wave length of 485 nm and emission wavelength of 515 nm over an 80 minute period, using a SpectraMax M5 from Molecular Devices (Sunnyvale, Calif.). The CETP activity (RFU/min) is defined as the change of fluorescence intensity from 40 to 70 min. Percent CETP inhibition is calculated as follows: ((100% Act−Wellcmpnd)/100% Act))*100. IC50 values were calculated with GraphPad Prism 5 software.

[1] = HDL-C in cynomolgus monkeys on chow or high carbohydrate diet; assay type: in vivo; details: Anacetrapib 10 mg/kg, mean ± SD; for HDL-C % Δ vs day 0, Day 7, Chow / HDL-C % Δ vs day 0, Day 14, Chow: chow diet; for HDL-C % Δ vs day 0, Day 7, Chow / HDL-C % Δ vs day 0, Day 7, High CHO: day 7, Example 8 3 mg/kg; for HDL-C % Δ vs day 0, Day 14, Chow / HDL-C % Δ vs day 0, Day 14, High CHO: day 14, Example 8 3 mg/kg; for HDL-C % Δ vs day 0, Day 7, High CHO / HDL-C % Δ vs day 0, Day 14, High CHO: high carbohydrate diet
Source text: Normal male cynomolgus monkeys (n=17) weighing between 8-14 kg are placed on a high-carbohydrate, low-fat diet. The caloric composition of the diet is approximately 13.4% protein, 79.1% carbohydrate (sugar to starch ratio 50:50) and 7.5% fat. Calories are derived from standard monkey chow (LabDiet® 5047, PMI, Richmond, Ind. or LabDiet® 5000, Balanced Fiber diet, PMI, Richmond, Ind.) in quantities necessary to meet the protein and fat requirements, with the remaining calories provided by sugar-sweetened cereals, candies, and fruit (banana, orange, cantaloupe, honeydew, pineapple). The high-carbohydrate (CHO) diet will be fed for 18 days (4 days of pre-drug diet, 14 days of drug treatment), after which time they will return to their regular chow diets for a 14 day washout period followed by a second 14 day dosing phase of the study (normal diet).
Compound of Example 8 is dissolved at 30 mg/mL in 1M NaOH+ethanol:maisoel glyceride:propylene glycol:cremophor RH40 (10:36:9:45) and diluted 1:10 in ddH2O. […] The formulations are prepared each day (weekend doses are prepared on Friday) and stored stirring and protected from light at room temperature until dosing. Artificial flavor and color will be added to the dose when prepared.
The animals will ingest the compounds (1 mL/kg) voluntarily from a plastic syringe offered at their home cage at approximately 8 am daily. Animals will be fed 60 minutes after the dose is administered.
Blood collection will take place weekly during each dosing phase. Animals are fasted overnight (approximately 16 hours) prior to blood collection. Blood samples are collected from a saphenous vein via needle and syringe and put into 2 mL EDTA-coated tubes that are immediately placed on ice until centrifugation. Samples are centrifuged at 3,000 rpm for 20 minutes. The plasma is collected, divided into aliquots (listed below), and stored at −70° C. until analysis.

Row | SMILES | IC50 (CETP; TG = 101.35 mg/dL (normal), read-out: CETP IC50 (nM) TG = 101.35 mg/dL) [nM] | IC50 (CETP; TG = 374.5 mg/dL (high), read-out: CETP IC50 (nM) TG = 374.5 mg/dL) [nM] | IC50 (CETP; TG = 1269.35 mg/dL (very high 2), read-out: CETP IC50 (nM) TG = 1269.35 mg/dL) [nM] | HDL-C % Δ vs day 0, Day 7, Chow [1] [%] | HDL-C % Δ vs day 0, Day 14, Chow [1] [%] | HDL-C % Δ vs day 0, Day 7, High CHO [1] [%] | HDL-C % Δ vs day 0, Day 14, High CHO [1] [%] | Retention of CETP inhibitory activity in plasma from hypertriglyceridemic human subjects (CETP; in vitro, plasma from subjects with elevated triglycerides)
1 | CC[C@@H]1C[C@H](N(Cc2cc(C(F)(F)F)cc(C(F)(F)F)c2)c2ncc(-c3cnn(C)c3)cn2)C[C@H](CC)N1C(=O)O[C@H]1CC[C@H](C(=O)O)CC1 [Example 8] | 88.4 | 51.9 | 61.4 | 144 ± 57 | 142 ± 33 | 210 ± 24 | 241 ± 29 | 
2 | COc1cc(F)c(C(C)C)cc1-c1ccc(C(F)(F)F)cc1CN1C(=O)O[C@H](c2cc(C(F)(F)F)cc(C(F)(F)F)c2)[C@@H]1C [Anacetrapib, reference compound] |  |  |  | 141 ± 45 | 136 ± 28 | 172 ± 34 | 184 ± 45 | does not retain its potency
